Test [1] is described as follows: DPPH (2,2-diphenyl-1-picryl-hydrazyl) spectrophotometric antioxidant test in ethanol, 517 nm. Format: biochemical. The conditions noted are these: DPPH 6.0×10^−6 M. The text has this:
The antioxidant activity of the combination which is the object of the present invention can be assayed in vitro using the DPPH (2,2-diphenyl-1-picryl-hydrazyl) spectrophotometric method. This method makes it possible to determine the antioxidant potential of a molecule to be assayed by measuring the variation of the absorbance of the radical DPPH in its presence at the wavelength of 517 nm (as reported in the literature) [Blois M. S., Antioxidant determination by the use of a stable free radical—Nature, 181:1199-1200; (1958)], according to the reaction: Z·+AH=ZH+A· [1] where: • Z· is the radical DPPH • AH is the single antioxidant (reducing) molecule present in the composition or in the extract • ZH is the reduced form of DPPH • A· is the free radical produced by oxidation of the antioxidant molecule.
The greater the reduction of the absorbance of the radical DPPH in solution, the greater will be the antioxidant potential of the molecule studied. The final results of the assay are expressed as EC50, i.e. as the concentration of antioxidant molecule at which there is a 50% reduction of the DPPH radical according to the following formula: % Inhibition=[A(T0)−A(Tn/A(T0)] • A(T0)=absorbance of the control sample at time 0 • A(Tn)=absorbance in the presence of the antioxidant sample at time n.
The antioxidant capacity of the combination according to the present invention was assayed in ethanol, using a DPPH concentration of 6.0×10^−6 M and final concentrations of each extract, previously solubilised in ethanol, ranging from 1 mcg/ml to 3 mg/ml. For the purposes of evaluating the synergistic effect the extracts were also assayed in a mixture in ratios ranging from 0.1:1 to 9.9:1. The myrtle and rosemary extracts were each subjected to the same extraction procedure, selected from among those indicated above, then brought to dryness and redissolved in ethanol at the desired concentrations so as to standardise the evaluation methodology. The absorbance was then determined at the wavelength of 517 nm in 1 cm quartz cells.

Test [2] deals with rat pheochromocytoma PC12 cell line. As to the kind of experiment: ATPLite test: ATP production of PC12 cells after H2O2-induced toxicity. The settings on record: H2O2 200 μM without addition of extracts. Format: cell-based. The text has this: The test used was the ATPLite™ test (Perkin Elmer, Milan), an ATP monitoring system based on luciferase, which permits assessment of the cytostatic and proliferative effects of various biological compounds. [Cree I. A. and Andreotti P. E. Measurement of cytotoxicity by ATP-based luminescence assay in primary cell cultures and cell lines—Toxicology in Vitro, 11, 553-556; (1997); Guan S., Bao Y. M., Jiang B., An L. Protective effect of protocatechuic acid from Alpinia oxyphylla on hydrogen peroxide-induced oxidative PC12 cell death—Eur. J. Pharmacol. 24: 538; (2006)].
The rat pheochromocytoma PC12 cell line (European Collection of Cell Cultures—ECACC, Sigma Aldrich, Milan) was used to evaluate the potential protective effects of extracts of rosemary (the same extract as described above in example 1) and of myrtle (the same extract as described above in example 2) against the toxicity induced by hydrogen peroxide (H2O2). The cells were grown on 96-well plates treated with poly-D-lysine (Sigma Aldrich, Milan) in D-MEM culture medium added with fetal bovine serum (FBS), penicillin/streptomycin, gentamycin, L-glutamine (all Invitrogen, Milan). […] After 24 hours the activity of the extracts on ATP production was evaluated using a Victor 3 spectrophotometer (Perkin Elmer, Milan). […]
Background: In ATP-based viability assays light output follows the ATP content of the culture.

Here are results for two compounds from patent US8192767B2, “Antioxidant compositions comprising extracts of myrtle and rosemary” (Nuraging Biotech S.R.L., priority 2006, dated 2012).

In the case of `COc1ccc(O)c(C(C)(C)C)c1` [BHA, butylated hydroxyl anisol], the “decrease in the absorbance of DPPH” value is 96.63% in test [1] (BHA 0.01 mg/ml in ethanol), 95.41% in test [1] (BHA 0.1 mg/ml in ethanol) and 92.18% in test [1] (BHA 1 mg/ml in ethanol).
Take `OO` [H2O2, hydrogen peroxide]: in test [2], the “ATP production vs vehicle” value is reported as −80%±4.1.
